Reference: patent publication US20150072933A1, “NOVEL SEQUENCES FOR THE CONTROL OF REPRODUCTION IN FISH” (Yissum Research Development Company of the Hebrew …, priority 2011, published 2015)
Entries after “also recorded” stand apart in the source; their conditions may differ. *1 amine or outer side, *2 acyl side, *3 side chain or, on linkers, in order; H or OH if unused. Where a SMILES comes first, the peptide text is derived from it. [ ]: non-standard residue; d: D form. Suc = O=C(CCC(=O)[*:2])[*:1]; NMeV = CN[C@H](C(=O)O)C(C)C

Legend:
[1] = tested on: NKB receptors (human NKBR, zebrafish Tac3ra, Tac3rb); test: Receptor transactivation assay, statements in words across SRE-Luc and CRE-Luc reporters and receptors; type: cell-based
Protocol: (§1) In order to study the signaling pathways of the novel zebrafish NKBs, the entire coding regions of zftac3ra (denoted by SEQ ID NO:6) or zftac3rb (denoted by SEQ ID NO:7), or the cDNA clone for human NK3R (obtained from the Missouri S&T cDNA Resource Center, were inserted into pcDNA3.1 (Invitrogen). The luciferase assay was conducted according to Biran et al., 2008 [4] COS-7 cells were grown in DMEM supplemented with 10% FBS, 1% glutamine, 100 U/ml penicillin, and […] streptomycin (Biological Industries) under 5% CO2 until confluent. Cotransfection of either pc-zftac3ra, pc-zftac3rb or pc-Htac3r (at 3 μg/plate), a reporter plasmid (at 2 μg/plate), and pCMV-β-galactosidase (at 1 μg/plate) was carried out with FuGENE 6.0 reagent (Roche). The cells were serum starved for 36 h, stimulated with vehicle or various concentrations of either human (Sigma) or zebrafish NKBs for 6 h, and then harvested and analyzed. Lysates prepared from the harvested cells were assayed for both luciferase activity and β-galactosidase activity, which was used as an internal standard to normalize the luciferase activity directed by the test plasmid. Transfection experiments were performed in triplicate with three independently isolated sets. Protein structure prediction of zebrafish NKBa, NKBb or NKF were performed on I-Tasser servers.
(§2) The response, binding selectivity and signal transduction pathways of the novel tachykinin receptors to their agonists were evaluated by functional expression analysis, using COS-7 cells.
(§3) Thus, the ability of the three novel piscine peptides (namely, NKBa, NKBb and NKF, denoted by SEQ ID NO.40, 41 and 42), as well as the ability of the three analogous agonistic peptides, namely, NKBa-analog, NKBb-analog and NKF-analog, to differentially activate the different tac3 receptors, using SRE as a reporter gene that follows PKC activation and CRE as a reporter gene for the PKA pathway, was tested. Human NK3R (human NKB receptor) and human NKB served as controls.

[2] = molecular target: T1, NKB receptors (human NKBR, zebrafish Tac3ra, Tac3rb) (Homo sapiens, UniProt P29371); test: as above; type: cell-based; settings: human NKBR (huNK3R), in both signal transduction systems (SRE-Luc and CRE-Luc)
T1 construct: expressed in transfected cells; host or cells: COS-7
T1 sequence (P29371 1-465): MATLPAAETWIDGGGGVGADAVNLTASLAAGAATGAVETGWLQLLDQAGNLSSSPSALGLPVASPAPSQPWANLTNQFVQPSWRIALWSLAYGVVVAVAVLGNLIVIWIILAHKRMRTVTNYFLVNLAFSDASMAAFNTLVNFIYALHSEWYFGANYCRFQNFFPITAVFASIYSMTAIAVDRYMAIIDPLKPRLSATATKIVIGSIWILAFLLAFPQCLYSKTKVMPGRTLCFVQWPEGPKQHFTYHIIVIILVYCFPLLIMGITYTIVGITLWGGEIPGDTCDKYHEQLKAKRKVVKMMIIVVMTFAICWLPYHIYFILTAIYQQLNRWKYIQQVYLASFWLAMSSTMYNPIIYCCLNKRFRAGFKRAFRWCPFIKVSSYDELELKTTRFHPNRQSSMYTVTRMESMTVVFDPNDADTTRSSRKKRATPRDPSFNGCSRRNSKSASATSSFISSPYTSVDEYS
Protocol: as §1, §2, §3

[3] = tested on: zfTac3rb; test: Receptor transactivation assay, SRE-Luc reporter (PKC activation), COS-7 cells expressing zfTac3rb; type: cell-based, zebrafish; settings: mean ± SEM
Protocol: as §1, §2
(§4) The NKB analogues (i.e. the NKBa-analog, NKBb-analog and NKF-analog, as denoted by SEQ ID NO. 44-46) were first analyzed in comparison to their native forms in a transactivation assay, using reporter genes for specific signal transduction pathways. To validate the specificity of the serum-responsive element (SRE)-Luc and cAMP-responsive element (CRE)-Luc reporter systems, specific activators for PLC/PKC and AC/PKA signaling pathways were used in control experiments.
as §3

[4] = tested on: zfTac3rb; test: Receptor transactivation assay, CRE-Luc reporter (PKA activation), COS-7 cells expressing zfTac3rb; type: cell-based, zebrafish; settings: mean ± SEM
Protocol: as §1, §2, §4, §3

[5] = molecular target: T2, huNK3R (Homo sapiens, UniProt P29371); test: Receptor transactivation assay, SRE-Luc reporter (PKC activation), COS-7 cells expressing human NK3R; type: cell-based
T2 construct: host or cells: COS-7
T2 sequence (P29371 1-465): T1 sequence (P29371 1-465)
Protocol: In order to study the signaling pathways of the novel zebrafish NKBs, the entire coding regions of zftac3ra (denoted by SEQ ID NO:6) or zftac3rb (denoted by SEQ ID NO:7), or the cDNA clone for human NK3R (obtained from the Missouri S&T cDNA Resource Center, were inserted into pcDNA3.1 (Invitrogen). The luciferase assay was conducted according to Biran et al., 2008 [4] COS-7 cells were grown in DMEM supplemented with 10% FBS, 1% glutamine, 100 U/ml penicillin, and 100 mg/ml streptomycin (Biological Industries) under 5% CO2 until confluent. Cotransfection of either pc-zftac3ra, pc-zftac3rb or pc-Htac3r (at 3 μg/plate), a reporter plasmid (at 2 μg/plate), and pCMV-β-galactosidase (at 1 μg/plate) was carried out with FuGENE 6.0 reagent (Roche). The cells were serum starved for 36 h, stimulated with vehicle or various concentrations of either human (Sigma) or zebrafish NKBs for 6 h, and then harvested and analyzed. Lysates prepared from the harvested cells were assayed for both luciferase activity and β-galactosidase activity, which was used as an internal standard to normalize the luciferase activity directed by the test plasmid. Transfection experiments were performed in triplicate with three independently isolated sets.

[6] = tested on: zfTac3ra; test: Receptor transactivation assay, CRE-Luc reporter (PKA activation), COS-7 cells expressing zfTac3ra; type: cell-based, zebrafish; settings: mean ± SEM
Protocol: as §1, §2, §4, §3

[7] = tested on: sexually mature female zebrafish; test: In vivo effect of NKBs in zebrafish: LH secretion after intraperitoneal injection; settings: single intraperitoneal injection
Protocol: In vivo studies involved administering NKBa, NKBb or NKF and the analogues thereof, denoted by SEQ ID NO. 40-42 and 44-46, respectively to immature fish (20 fish/treatment). The circulating levels of E2, 11KT, LH and FSH were determined prior to hormonal manipulations, in order to confirm that these fish were indeed sexually immature. The fish were injected intramuscularly (i.m.) or intraperitonealy (i.p.) at various doses. Adult female zebra fish were injected intraperitoneally with 20 pmol/g body weight. Control fish were injected with saline. Plasma samples were collected at time 0, and specific times after the administration of the peptide/s, to determine the levels of E2, 11KT, LH and FSH.
To further characterize the role of the NKB/NKBR system in fish reproduction the in vivo biological function of zebrafish NKB peptides was next examined.

[8] = tested on: zfTac3ra; test: Receptor transactivation assay, SRE-Luc reporter (PKC activation), COS-7 cells expressing zfTac3ra; type: cell-based, zebrafish; settings: mean ± SEM
Protocol: as §1, §2, §4, §3

[9] = tested on: Mature female carp; test: Gonadotropin release from mature carp in vivo (LH by ELISA); settings: mature female carp just before spawning, injected 20 μg/kg body weight; listed as NKBb analogue
Protocol: Mature female carp, just before spawning, were injected with NKBa, NKBb and NKF analogues, denoted by SEQ ID NO.44, SEQ ID NO.45 and SEQ ID NO.46, respectively (20 μg/kg body weight). LH levels was measured by specific ELISA, according to Aizen et al. 2012 [33].

[10] = Table 7 (native peptides and analogues), PKC activation, read-out: EC50 using SRE, zfTac3rb
[11] = Table 6 (native peptides and analogues), PKA activation, read-out: EC50 using CRE-Luc, zfTac3rb
[12] = Table 6 (native peptides and analogues), PKA activation, read-out: EC50 using CRE-Luc, zfTac3ra
[13] = Table 7 (native peptides and analogues), PKC activation, read-out: EC50 using SRE, zfTac3ra

Compound	potency ([1]; both zebrafish tac3 receptors, in both signal transduction systems)	effectiveness in the transactivation assay ([1]; native peptides versus analogues, Example 12)	potency [2]	EC50 ([3]; Table 5, COS-7 cells, SRE-Luc follows PKC activation, read-out: EC50 SRE-Luc zfTac3rb) [nM]	EC50 [3, 10] [nM]	EC50 ([4]; Table 5, COS-7 cells, CRE-Luc follows PKA activation, read-out: EC50 CRE-Luc zfTac3rb) [nM]	EC50 ([4]; Table 6 (native peptides and analogues), PKA activation, listed as NKBa, read-out: EC50 using CRE-Luc, zfTac3rb) [nM]	EC50 [4, 11] [nM]	SRE-driven luciferase activity, response ([5]; COS-7 cells transiently transfected with human NK3R)	EC50 ([5]; Table 5, COS-7 cells, SRE-Luc follows PKC activation, mean ± SEM) [nM]	EC50 ([6]; Table 5, COS-7 cells, CRE-Luc follows PKA activation, read-out: EC50 CRE-Luc zfTac3ra) [nM]	EC50 [6, 12] [nM]	LH secretion ([7]; 20 pmol/g body weight, sexually mature female zebrafish)	magnitude of the induced LH discharge ([7]; compared with GnRH)	EC50 ([8]; Table 5, COS-7 cells, SRE-Luc follows PKC activation, read-out: EC50 SRE-Luc zfTac3ra) [nM]	EC50 [8, 13] [nM]	EC50 ([4]; Table 6 (native peptides and analogues), PKA activation, listed as NKBb-analog, read-out: EC50 using CRE-Luc, zfTac3rb) [nM]	EC50 ([6]; Table 6 (native peptides and analogues), PKA activation, listed as NKBb-analog, read-out: EC50 using CRE-Luc, zfTac3ra) [nM]	LH level [9]
CC[C@H](C)[C@H](NC(=O)[C@H](CC(=O)O)NC(=O)[C@H](Cc1c[nH]cn1)NC(=O)[C@H](CCSC)NC(=O)[C@@H](N)CCC(=O)O)C(=O)N[C@@H](Cc1ccccc1)C(=O)N[C@H](C(=O)NCC(=O)N[C@@H](CC(C)C)C(=O)N[C@@H](CCSC)C(N)=O)C(C)C [zfNKBa] (H-EMHDIFVGLM-NH2)	most potent among all tachykinins examined	most effective peptide	high potency	1.47 ± 1.66	26.1	4.55 ± 1.57	16	16.4 ± 12	elicited an increased response	0.49 ± 0.18	5.75 ± 1.45	4.75 ± 1.48	significant increase; also recorded: significant LH secretion	comparable with that observed in response to GnRH	0.5 ± 0.17	0.62 ± 0.22			
CSCC[C@H](NC(=O)[C@H](CC(C)C)NC(=O)CNC(=O)[C@H](C(C)C)N(C)C(=O)[C@H](Cc1ccccc1)NC(=O)[C@H](CC(=O)O)NC(=O)CCC(=O)O)C(N)=O [zfNKBb-analog, Succ-Asp-Phe-N(Me)Val-Gly-Leu-Met-NH2] (Suc-DF[NMeV]GLM-NH2)					0.23			2.18 ± 1.34				1.68 ± 1.21				0.06	2.2	1.7	significant elevation; also recorded: increased the level of LH significantly
